From PubChem BioAssay (NCI)
Where “and” joins values, the source holds several entries; their conditions need not be identical. Identical values can stand only once.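 Cultured in 96-well plates, cells were exposed to test compound for 48 hours across five concentrations. Abbreviation: GI50, concentration required for 50% inhibition of growth. At the TGI there is no net growth.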

Columns and labels:
Test in all cases: NCI anticancer screen, dose series, 48 h
NCI-H522 lung = system: NCI-H522 lung
MALME-3M melanoma = system: MALME-3M melanoma
K-562 leukemia = system: K-562 leukemia
HS 578T breast = system: HS 578T breast
ACHN renal = system: ACHN renal
MDA-MB-231 breast = system: MDA-MB-231 breast
SK-MEL-5 melanoma = system: SK-MEL-5 melanoma
SW-620 colon = system: SW-620 colon
UACC-257 melanoma = system: UACC-257 melanoma
CAKI-1 renal = system: CAKI-1 renal

Row | Structure (SMILES) | GI50 (NCI-H522 lung) | TGI (NCI-H522 lung) | GI50 (MALME-3M melanoma) | TGI (MALME-3M melanoma) | GI50 (K-562 leukemia) | TGI (K-562 leukemia) | GI50 (HS 578T breast) | TGI (HS 578T breast) | GI50 (ACHN renal) | TGI (ACHN renal) | GI50 (MDA-MB-231 breast) | TGI (MDA-MB-231 breast) | GI50 (SK-MEL-5 melanoma) | TGI (SK-MEL-5 melanoma) | GI50 (SW-620 colon) | TGI (SW-620 colon) | GI50 (UACC-257 melanoma) | TGI (UACC-257 melanoma) | GI50 (CAKI-1 renal) | TGI (CAKI-1 renal)
1 | CCCCCCn1c(-c2ccc(C(=O)O/N=C(\N)c3ccc4c(c3)OCO4)cc2)nc(-c2ccccc2)c1-c1ccccc1 | 1.81 µM | 3.92 µM | 1.83 µM | 4.06 µM | 1.92 µM | 5.06 µM | 1.64 µM | 3.95 µM | 0.387 µM | 1.46 µM | 2.41 µM | 6.72 µM | 2.22 µM | 4.93 µM | 2.8 µM | 12 µM | 10.5 µM | 43.2 µM | 1.39 µM | 2.86 µM
2 | Nc1nc(Cl)nc2c1ncn2C1CC(O)C(CO)O1 (stereo not given) | – | > 100 µM | – | > 100 µM | – | > 100 µM | > 100 µM | > 100 µM | 0.562 µM | > 100 µM | > 79.8 µM | > 100 µM | – | > 91.4 µM | – | > 100 µM | – | 40.4 µM | – | 17.3 µM
3 | c1ccc(C2=NOC(c3ccccc3)N2C23CC4CC(CC(C4)C2)C3)cc1 (stereo not given) | – | > 10 µM | – | > 10 µM | – | > 10 µM | – | > 10 µM | – | > 10 µM | – | > 10 µM | – | > 10 µM | – | > 10 µM | – | > 10 µM | – | > 10 µM
4 | COc1cc2c3c(n(C)c(=O)c2cc1OC)-c1cc2c(cc1C3=O)OCO2 | – | 34.8 µM | – | > 100 µM | – | > 92.2 µM | – | > 100 µM | – | > 60.5 µM | – | > 100 µM | – | > 44.8 µM | – | > 100 µM | – | > 100 µM | – | > 53.1 µM
5 | N#CC(I)CS(=O)(=O)c1ccccc1 (stereo not given) | 1.34 µM | 2.78 µM | 2.13 µM | 4.27 µM | – | – | 26.5 µM | 61.4 µM | 1.87 µM | 3.35 µM | 17.3 µM | 33.9 µM | 17.7 µM | 31.9 µM | 1.78 µM | 3.49 µM | 17 µM | 31.2 µM | 1.61 µM | 3.32 µM
6 | O=C(CC(=O)Nc1ccccc1)NNC(Sc1ccccc1)c1cc(N=Nc2ccc(Br)cc2)ccc1O (stereo not given) | – | > 10 µM | – | > 10 µM | – | 6.27 µM | – | > 10 µM | – | > 10 µM | – | > 10 µM | – | 4.6 µM | – | > 10 µM | – | > 10 µM | – | > 10 µM
7 | NNc1ncnc2nc[nH]c12 | 1.83 µM | > 100 µM | 28.6 µM | > 100 µM | 3.4 µM | > 100 µM | 7.71 µM | > 70 µM | 4.78 µM | > 94 µM | 2.92 µM | 31.7 µM | 6.05 µM | 36.4 µM | 3.91 µM | > 100 µM | 57.6 µM | > 100 µM | 0.793 µM | 18.3 µM
8 | COc1cc2c(cc1OCCCN1CCN(CCCOc3cc4c(cc3OC)C(=O)N3CC(F)(F)C[C@H]3C=N4)CC1)N=C[C@@H]1CC(F)(F)CN1C2=O | 1.14 µM | 3.86 µM | 2.8 µM | 6.34 µM | 1.74 µM | > 100 µM | 2.32 µM | 9.55 µM | 5.64 µM | 19.7 µM | 4.29 µM | 17.6 µM | 1.86 µM | 4.16 µM | 2.61 µM | 12.5 µM | 15.3 µM | 31.6 µM | 3.31 µM | 13.5 µM
9 | COC(=O)C1=CN(CC2=CC(=O)C(C)=CC2=O)C=C(C(=O)OC)C1c1ccccc1OC | 23.7 µM | > 64.6 µM | 14 µM | 33.3 µM | 0.495 µM | 14.9 µM | 25.9 µM | 77.8 µM | 14.8 µM | 30.6 µM | 9.66 µM | 28 µM | 14.2 µM | 30.4 µM | 18.5 µM | > 64.9 µM | 22.3 µM | 44.3 µM | 16.7 µM | 37.9 µM
10 | Cc1nc2c(Br)cc(Br)cc2c(=O)n1-c1nnc(-c2cccc(Cl)c2Cl)c(N)n1 | 12.8 µM | 54.6 µM | – | – | 3.4 µM | 22.6 µM | 16 µM | 47.2 µM | 19.5 µM | 56.1 µM | 13.9 µM | 49.5 µM | 17.2 µM | 39 µM | 33.8 µM | > 100 µM | 24.5 µM | 65.1 µM | 28.5 µM | 80.6 µM
11 | CCOc1c(OC)cc(-c2nc3n(n2)C(=O)C(CC)S3)cc1OC (stereo not given) | – | > 10 µM | – | > 10 µM | – | > 10 µM | – | > 10 µM | – | > 10 µM | – | > 10 µM | – | > 10 µM | – | > 10 µM | – | > 10 µM | – | > 10 µM
12 | Nc1c(C(=O)Nc2ccccn2)sc2nc3c(cc12)C(=O)CCC3 | 0.595 µM | > 100 µM | 13.1 µM | > 100 µM | 0.463 µM | > 100 µM | 0.804 µM | 93.7 µM | 6.06 µM | > 100 µM | 4.54 µM | > 100 µM | 0.444 µM | > 100 µM | 0.706 µM | > 100 µM | 69.8 µM | > 100 µM | 0.697 µM | > 100 µM
13 | C=C(CN(C)Cc1ccccc1)c1ccc(NC(=O)c2ccc(C(=C)CN(C)Cc3ccccc3)cc2)cc1 | > 100 µM | > 100 µM | > 100 µM | > 100 µM | 45 µM | > 100 µM | 40 µM | > 100 µM | 66.6 µM | > 100 µM | 54.9 µM | > 100 µM | 68.3 µM | > 100 µM | 96.7 µM | > 100 µM | > 100 µM | > 100 µM | 53 µM | > 100 µM
14 | NC(=S)N/N=C/c1ncccc1O | 2.44 µM and 1.29 µM | > 42.9 µM and 87 µM | 4.47 µM | > 64.8 µM and 156 µM | 2.92 µM | > 1000 µM | – | 835 µM | 0.202 µM | 8.54 µM and 1.38 µM | – | > 1000 µM | 2.04 µM and 1.26 µM | 35.5 µM and 67.2 µM | 3.3 µM | > 839 µM | – | 8.97 µM and 72.7 µM | 2.59 µM | > 56.7 µM and 63.9 µM
15 | CCCCOCCOC1=C(Cl)C(=O)c2c(O)ccc(O)c2C1=O | – | 1.33 µM | – | 0.628 µM | – | – | – | 5.43 µM | – | 1.1 µM | – | 1.07 µM | – | 1.98 µM | – | 0.387 µM | – | 1.15 µM | – | 1.36 µM
